Results published in PMC12657321, “Pre-clinical evaluation of a potent and effective Pin1-degrading agent in pancreatic cancer” (Molecular Therapy Oncology, 2025).
Non-standard residues stand in square brackets, D forms with d. Residues, ends and D or L forms follow the SMILES beside them. *: point of attachment. Trp(6-Cl) = N[C@@H](Cc1c[nH]c2cc(Cl)ccc12)C(=O)O; Pip = O=C(O)[C@@H]1CCCCN1; ClAc = O=C(CCl)*

Assays:
Human plasma stability = assay type: in vitro ADME; settings: 37°C, up to 6 h, acetonitrile quench, LC-MS/MS
Method: A solution of a Pin1 inhibitor was spiked into blank plasma at 1 μg/mL in various solutions, including an aqueous buffer (1× phosphate-buffered saline; Fisher Scientific, Fair Lawn, NJ), human plasma (Innovative Research Inc., Novi, MI), wild-type mouse plasma (Innovative Research Inc., Novi, MI), plasma form esterase-deficient mice (City of Hope, Duarte, CA), and plasma from Black 6-Cg mice (City of Hope, Duarte, CA).
The spiked plasma samples were incubated at 37°C for up to 6 h. At each designated time point, a 20 μL aliquot of the incubation sample was removed and quenched in 100 μL of acetonitrile. At the end of the incubation, the quenched samples were vortexed and centrifuged for 10 min at 4°C and 20,000 × g. The resulting supernatant was reconstituted and analyzed by LC-MS/MS.
Table S2. Stability half-life of agents reported in Table 1 after incubation at 37 °C in various media. Acq represents aqueous buffer composed of 1x phosphate buffered saline (Fisher Scientific, Fair Lawn, NJ); human represents human plasma (Innovative Research Inc., Novi, MI); mouse wt represents wild type mouse plasma (Innovative Research Inc., Novi, MI); mouse ES1e represents plasma form esterase deficient mice (City of Hope, Duarte, CA); mouse B6-Cg represents plasma from black 6-Cg mice (City of Hope, Duarte, CA). See Figure 1 for the chemical structures of these compounds.
Compound Acq Human Mouse Mouse ES1e Mouse

CD-1 mice = assay type: in vivo, mouse
Method: The effect of Pin1 degradation by 164B8 on cell viability was assessed using live-cell analysis (IncuCyte S3). […] Furthermore, to evaluate the acute single-dose toxicity of 164B8 in vivo, CD-1 immune-competent mice were exposed to increasing doses of 164B8. […] Therefore, a maximum tolerated dose was not reached (Figure S12).
Figure S12: A) Acute toxicity study at 100mg/kg. In this preliminary safety study, 3 CD -1 mice were treated with a single dose of 100 mg/kg of 164B8. The injections were administered intraperitoneally (ip), and the body weight of the mice was measured for several days after the injection. B) Body weight control during the in -vivo efficacy study. The body weights of the mice in the three groups were measured on the day of treatment (day 0) and 7 and 14 days after.
(1 picture or pasted object on this page, not shown here)

[1] = 164B8 concentration in tissues of treated mice by LC-MS; assay type: in vivo, mouse; settings: for 164B8 conc. (ng/mg) Predicted means (LS means) Adjacent Peritoneum / 164B8 conc. (ng/mg) Predicted means (LS means) Liver / 164B8 conc. (ng/mg) Predicted means (LS means) Tumor: 6 h after last dose, LC-MS, two-way ANOVA LS mean (Figure 7B)
Method: To further verify that the observed activity was due to direct inhibition of Pin1 in vivo, we analyzed tumor tissues to measure 164B8 levels and Pin1 degradation in both tumor and normal tissues. At day 14, 6 h after the final intraperitoneal dose, 164B8 was detected and quantified in tumor tissue via liquid chromatography-mass spectrometry (LC-MS). Significant levels of 164B8 were detected in the liver, tumor-adjacent peritoneum, and tumor tissues collected from mice treated with either 30 mg/kg or 60 mg/kg (Figure 7A). The average tumor values were 0.62 ng/mg for mice treated with 30 mg/kg 164B8 and approximately 8 ng/mg for those treated with 60 mg/kg 164B8, compared with the vehicle control (0.03 ng/mg). In mice treated with 164B8 at 60 mg/kg, we observed enrichment of 164B8 in tumor tissues compared with adjacent normal tissues (mean: 3.65 vs. 8 ng/mg, p = 0.035) and normal liver tissues (mean: 0.75 vs. 8 ng/mg, p = 0.0003). For the 30 mg/kg dose, drug levels were numerically higher in tumor tissue (0.62 ng/mg) compared with adjacent normal peritoneum (0.11 ng/mg) and liver (0.10 ng/mg), although these differences were not statistically significant after adjustment for multiple comparisons (Figures 7A and 7B). Likewise, Pin1 levels in tumor tissues were detected via western blotting (Figure 7C).
Figure 7 Determination of Pin1 levels and 164B8 concentration in treated mice Pin1 drug concentration and Pin1 levels in tumors were measured 6 h after the last dose of 164B8 treatment by LC-MS (A and B) and western blot (C), respectively. Drug concentrations among the three groups were compared using two-way ANOVA in Prism, accounting for interactions (D). Tukey’s multiple comparison test was used to compare multiple groups (∗∗∗p = 0.0003, ∗p = 0.035). Pin1 levels were compared among the three groups after normalizing to β-actin (loading control) using one-way ANOVA and adjusting for multiple comparisons (∗∗∗p < 0.001). TEXT PRINTED IN THE PICTURE: (B) 164B8: 164B8 conc. (ng/mg) Predicted means (LS means) Liver: 0.1017 (30mg/kg); 164B8 conc. (ng/mg) Predicted means (LS means) Adjacent Peritoneum: 0.1133 (30mg/kg); 164B8 conc. (ng/mg) Predicted means (LS means) Tumor: 0.6183 (30mg/kg); 164B8 conc. (ng/mg) Predicted means (LS means) Column means: 0.2778 (30mg/kg); 164B8 conc. (ng/mg) Predicted means (LS means) Liver: 0.7550 (60mg/kg); 164B8 conc. (ng/mg) Predicted means (LS means) Adjacent Peritoneum: 3.648 (60mg/kg); 164B8 conc. (ng/mg) Predicted means (LS means) Tumor: 8.005 (60mg/kg); 164B8 conc. (ng/mg) Predicted means (LS means) Column means: 4.136 (60mg/kg)
Bioluminescent imaging (BLI) was performed one week post-inoculation. Based on imaging intensity, mice were re-grouped to ensure six animals per group. The PIN1 inhibitor was administered via intraperitoneal injection at doses of 30 mg/kg or 60 mg/kg, once daily, 5 days per week for 2 weeks. Tumor engraftment and growth were monitored by in vivo BLI. D-luciferin potassium salt was dissolved in sterile PBS to a final concentration of 16.6 mg/mL and mice were injected intraperitoneally with D-luciferin solution (0.139 g luciferin/kg body weight), then imaged 10–15 min after luciferin injection using an IVIS Spectrum Imaging System (Lago X) with identical exposure times and binning settings for all mice. Bioluminescence signal intensity was quantified as total flux (photons/s) within a region of interest (ROI) using Aura image software. BLI was performed once every week during the treatment. After 2 weeks of treatment, mice were euthanized 6 h after the final dose. Blood samples were collected via cardiac puncture, and normal peritoneum, intestine, and liver tissues were harvested and snap-frozen on dry ice.

CNC(=O)[C@H](Cc1c[nH]c2ccccc12)NC(=O)[C@@H]1CCCCN1C(=O)[C@H](Cc1c[nH]c2cc(Cl)ccc12)NC(=O)CCl [164B8] (ClAc-[Trp(6-Cl)]-[Pip]-Trp-NHMe)
half-life at 1 μg/mL (Human plasma stability): ~4.5 h
Acute single-dose toxicity (CD-1 mice; 100 mg/kg single dose intraperitoneally (highest soluble dose), monitored over 2 weeks, 3 mice): did not produce any observable signs of acute toxicity
Maximum tolerated dose (CD-1 mice; single intraperitoneal dose up to 100 mg/kg): not reached
164B8 conc. (ng/mg) Predicted means (LS means) Adjacent Peritoneum ([1]; 30mg/kg): 0.1133 ng/mg
164B8 conc. (ng/mg) Predicted means (LS means) Liver ([1]; 30mg/kg): 0.1017 ng/mg
164B8 conc. (ng/mg) Predicted means (LS means) Tumor ([1]; 30mg/kg): 0.6183 ng/mg
164B8 conc. (ng/mg) Predicted means (LS means) Adjacent Peritoneum ([1]; 60mg/kg): 3.648 ng/mg
164B8 conc. (ng/mg) Predicted means (LS means) Liver ([1]; 60mg/kg): 0.7550 ng/mg
164B8 conc. (ng/mg) Predicted means (LS means) Tumor ([1]; 60mg/kg): 8.005 ng/mg
164B8 conc. (ng/mg) Predicted means (LS means) Column means ([1]; 60mg/kg, mean over liver, adjacent peritoneum and tumor (Figure 7B)): 4.136 ng/mg
